Data: ChEMBL document CHEMBL1909046, “DrugMatrix in vitro pharmacology data”

Experiments:
Mu-type opioid receptor = Mu-type opioid receptor (Homo sapiens, UniProt P35372); assay: DRUGMATRIX: Opiate mu (OP3, MOP) radioligand binding (ligand: [3H] Diprenorphine); assay type: cell membranes, CHO-K1, Membrane; settings: cho-k1; Not Active = under 50% inhibition at 10 µM
[1] = DRUGMATRIX: Nicotinic Acetylcholine radioligand binding (ligand: [125I] Epibatidine); assay type: cell membranes, Membrane; settings: imr-32; Not Active = under 50% inhibition at 10 µM
[2] = biological target: 5-hydroxytryptamine receptor 4 (Cavia porcellus, UniProt O70528); assay type: cell membranes, Dunkin-Hartley, Striatum, Membrane; further: in other assays of this panel Not Active means under 50% inhibition at 10 µM
Sequence of 5-hydroxytryptamine receptor 4 (O70528 whole entry): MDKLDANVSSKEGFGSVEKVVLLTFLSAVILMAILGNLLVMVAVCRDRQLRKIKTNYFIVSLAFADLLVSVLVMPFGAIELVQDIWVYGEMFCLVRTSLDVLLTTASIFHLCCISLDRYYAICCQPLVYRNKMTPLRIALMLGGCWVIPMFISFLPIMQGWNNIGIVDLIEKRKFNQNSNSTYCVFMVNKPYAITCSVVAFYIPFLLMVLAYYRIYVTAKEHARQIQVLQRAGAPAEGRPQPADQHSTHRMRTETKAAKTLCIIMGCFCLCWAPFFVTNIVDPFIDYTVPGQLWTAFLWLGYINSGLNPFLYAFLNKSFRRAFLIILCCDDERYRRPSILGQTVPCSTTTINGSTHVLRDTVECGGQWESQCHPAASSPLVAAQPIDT

[3] = biological target: T1, Polyunsaturated fatty acid lipoxygenase ALOX15 (Oryctolagus cuniculus, UniProt P12530); assay: biochemical; assay type: tissue-based, Reticulocytes; settings: reticulocytes;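 further: inhibition of 15-lipoxygenase enzyme activity measured with linoleic acid as the substrate; in other assays of this panel Not Active means under 50% inhibition at 10 µM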
T1 sequence (P12530 whole entry): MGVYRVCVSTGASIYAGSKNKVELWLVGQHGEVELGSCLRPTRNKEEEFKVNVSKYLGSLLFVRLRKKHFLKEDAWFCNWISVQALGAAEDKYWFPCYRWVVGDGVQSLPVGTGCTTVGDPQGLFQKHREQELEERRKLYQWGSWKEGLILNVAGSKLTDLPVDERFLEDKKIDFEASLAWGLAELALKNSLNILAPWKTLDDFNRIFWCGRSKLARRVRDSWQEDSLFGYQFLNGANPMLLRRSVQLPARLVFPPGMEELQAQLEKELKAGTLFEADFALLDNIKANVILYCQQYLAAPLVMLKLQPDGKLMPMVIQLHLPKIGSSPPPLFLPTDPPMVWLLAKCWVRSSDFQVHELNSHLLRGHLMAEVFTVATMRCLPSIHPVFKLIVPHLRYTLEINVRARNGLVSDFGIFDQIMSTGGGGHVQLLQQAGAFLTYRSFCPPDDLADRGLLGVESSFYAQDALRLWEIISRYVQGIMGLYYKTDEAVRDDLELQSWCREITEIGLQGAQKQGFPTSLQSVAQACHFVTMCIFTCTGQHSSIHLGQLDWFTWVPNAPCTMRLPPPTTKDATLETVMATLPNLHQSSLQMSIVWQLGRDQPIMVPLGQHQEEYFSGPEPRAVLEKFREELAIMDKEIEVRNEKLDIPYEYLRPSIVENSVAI

[4] = biological target: Mitogen-activated protein kinase 14 (Homo sapiens, UniProt Q16539); set-up: species or system Escherichia coli;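 further: inhibition of p38alpha enzyme activity in a biochemical kinase assay, with myelin basic protein serving as substrate; in other assays of this panel Not Active means under 50% inhibition at 10 µM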
Sequence of Mitogen-activated protein kinase 14 (Q16539 whole entry): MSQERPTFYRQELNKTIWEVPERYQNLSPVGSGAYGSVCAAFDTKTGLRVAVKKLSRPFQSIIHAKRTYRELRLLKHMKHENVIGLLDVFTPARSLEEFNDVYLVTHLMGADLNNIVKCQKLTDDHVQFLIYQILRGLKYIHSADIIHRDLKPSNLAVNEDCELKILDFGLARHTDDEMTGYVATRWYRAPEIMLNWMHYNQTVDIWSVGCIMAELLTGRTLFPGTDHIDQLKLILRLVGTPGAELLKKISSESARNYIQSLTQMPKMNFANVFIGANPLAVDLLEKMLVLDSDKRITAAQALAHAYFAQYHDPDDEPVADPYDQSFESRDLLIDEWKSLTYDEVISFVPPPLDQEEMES

[5] = DRUGMATRIX: Leukotriene, BLT (LTB4) radioligand binding (ligand: [3H]LTB4); assay type: cell membranes, Membrane; settings: u-937; Not Active = under 50% inhibition at 10 µM
Cytochrome P450 3A4 = Cytochrome P450 3A4 (Homo sapiens, UniProt P08684); settings: bti-tn-5b1-4; further: in other assays of this panel Not Active means under 50% inhibition at 10 µM
Sequence of Cytochrome P450 3A4 (P08684 whole entry): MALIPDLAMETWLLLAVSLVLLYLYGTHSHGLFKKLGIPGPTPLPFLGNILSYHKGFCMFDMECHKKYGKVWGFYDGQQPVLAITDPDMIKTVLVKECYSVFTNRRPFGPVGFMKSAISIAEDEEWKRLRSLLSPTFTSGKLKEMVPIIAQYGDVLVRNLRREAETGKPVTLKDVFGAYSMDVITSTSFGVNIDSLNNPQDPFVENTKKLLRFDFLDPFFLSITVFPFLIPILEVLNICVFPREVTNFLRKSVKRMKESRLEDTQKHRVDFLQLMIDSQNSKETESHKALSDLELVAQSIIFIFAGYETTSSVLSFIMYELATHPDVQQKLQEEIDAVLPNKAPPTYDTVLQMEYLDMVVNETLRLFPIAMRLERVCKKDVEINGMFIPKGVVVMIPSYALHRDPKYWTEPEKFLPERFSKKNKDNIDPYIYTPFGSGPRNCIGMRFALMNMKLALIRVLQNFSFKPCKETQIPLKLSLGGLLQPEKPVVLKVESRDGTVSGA

Sequence of Mu-type opioid receptor (P35372 whole entry): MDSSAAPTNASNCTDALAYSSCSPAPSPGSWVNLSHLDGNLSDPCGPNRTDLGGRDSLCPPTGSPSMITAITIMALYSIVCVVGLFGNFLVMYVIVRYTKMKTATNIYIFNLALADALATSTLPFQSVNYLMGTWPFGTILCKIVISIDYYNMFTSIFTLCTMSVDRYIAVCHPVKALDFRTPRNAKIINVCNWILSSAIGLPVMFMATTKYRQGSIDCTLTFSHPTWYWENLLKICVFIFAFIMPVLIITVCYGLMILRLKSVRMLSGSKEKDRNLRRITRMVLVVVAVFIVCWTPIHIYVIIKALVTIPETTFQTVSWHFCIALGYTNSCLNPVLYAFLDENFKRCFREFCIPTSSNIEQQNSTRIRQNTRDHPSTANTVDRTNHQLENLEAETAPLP

CCOC(=O)C1=C(C)NC(C)=C(C(=O)OC)C1c1cccc([N+](=O)[O-])c1 (stereo not given) [NITRENDIPINE]
Not Active: IC50 (Mu-type opioid receptor) | IC50 [1] | Ki [1] | IC50 [2] | IC50 [3] | IC50 [4] | IC50 [5] | Ki [5] | IC50 (Cytochrome P450 3A4) | Ki (Cytochrome P450 3A4)

C#C[C@]1(OC(C)=O)CC[C@H]2[C@@H]3CCC4=CC(=O)CC[C@@H]4[C@H]3CC[C@@]21C [NORETHINDRONE ACETATE]
Not Active: IC50 (Mu-type opioid receptor) | IC50 [1] | Ki [1] | IC50 [2] | IC50 [3] | IC50 [4] | IC50 [5] | Ki [5] | IC50 (Cytochrome P450 3A4) | Ki (Cytochrome P450 3A4)

COc1ccc2[nH]c([S+]([O-])Cc3ncc(C)c(OC)c3C)nc2c1 (stereo not given) [OMEPRAZOLE]
Not Active: IC50 (Mu-type opioid receptor) | IC50 [1] | Ki [1] | IC50 [2] | IC50 [3] | IC50 [4] | IC50 [5] | Ki [5] | IC50 (Cytochrome P450 3A4) | Ki (Cytochrome P450 3A4)

Cc1nccn1CC1CCc2c(c3ccccc3n2C)C1=O (stereo not given) [ONDANSETRON]
Not Active: IC50 (Mu-type opioid receptor) | IC50 [1] | Ki [1] | IC50 [2] | IC50 [3] | IC50 [4] | IC50 [5] | Ki [5] | IC50 (Cytochrome P450 3A4) | Ki (Cytochrome P450 3A4)

CCCCOc1ccc(OCCCN2CCOCC2)cc1 [PRAMOXINE]
Not Active: IC50 (Mu-type opioid receptor) | IC50 [1] | Ki [1] | IC50 [2] | IC50 [3] | IC50 [4] | IC50 [5] | Ki [5] | IC50 (Cytochrome P450 3A4) | Ki (Cytochrome P450 3A4)

O=C(C1CCCCC1)N1CC(=O)N2CCc3ccccc3C2C1 (stereo not given) [PRAZIQUANTEL]
Not Active: IC50 (Mu-type opioid receptor) | IC50 [1] | Ki [1] | IC50 [2] | IC50 [3] | IC50 [4] | IC50 [5] | Ki [5] | IC50 (Cytochrome P450 3A4) | Ki (Cytochrome P450 3A4)

CCN(CC)CCOC(=O)c1ccc(N)cc1 [PROCAINE]
Not Active: IC50 (Mu-type opioid receptor) | IC50 [1] | Ki [1] | IC50 [2] | IC50 [3] | IC50 [4] | IC50 [5] | Ki [5] | IC50 (Cytochrome P450 3A4) | Ki (Cytochrome P450 3A4)

CCCN(CCC)C(=O)C(CCC(=O)O)NC(=O)c1ccccc1 (stereo not given) [PROGLUMIDE]
Not Active: IC50 (Mu-type opioid receptor) | IC50 [1] | Ki [1] | IC50 [2] | IC50 [3] | IC50 [4] | IC50 [5] | Ki [5] | IC50 (Cytochrome P450 3A4) | Ki (Cytochrome P450 3A4)

NC(=O)c1cnccn1 [PYRAZINAMIDE]
Not Active: IC50 (Mu-type opioid receptor) | IC50 [1] | Ki [1] | IC50 [2] | IC50 [3] | IC50 [4] | IC50 [5] | Ki [5] | IC50 (Cytochrome P450 3A4) | Ki (Cytochrome P450 3A4)

OC(CCN1CCCCC1)(c1ccccc1)C1CCCCC1 (stereo not given) [TRIHEXYPHENIDYL]
Not Active: IC50 (Mu-type opioid receptor) | IC50 [1] | Ki [1] | IC50 [2] | IC50 [3] | IC50 [4] | IC50 [5] | Ki [5] | IC50 (Cytochrome P450 3A4) | Ki (Cytochrome P450 3A4)

Cc1cc2cc3c(C)cc(=O)oc3c(C)c2o1 [TRIOXSALEN]
Not Active: IC50 (Mu-type opioid receptor) | IC50 [1] | Ki [1] | IC50 [2] | IC50 [3] | IC50 [4] | IC50 [5] | Ki [5] | IC50 (Cytochrome P450 3A4) | Ki (Cytochrome P450 3A4)

CCCC(CCC)C(=O)O [VALPROIC ACID]
Not Active: IC50 (Mu-type opioid receptor) | IC50 [1] | Ki [1] | IC50 [2] | IC50 [3] | IC50 [4] | IC50 [5] | Ki [5] | IC50 (Cytochrome P450 3A4) | Ki (Cytochrome P450 3A4)
